This passage reports Activity and inhibition results from ChEMBL document CHEMBL6109033, “Design and synthesis of novel antioxidants derived from chalcones and their protective effects on cardiomyocytes by activating Nrf2/HO-1 pathway” (Bioorg Med Chem Lett, 2025).

Each structure is given as a SMILES string. Activity calls are given as the source filed them. The rule behind the calls is not given here.

The subject of experiment [1] is H9c2. In words: Antioxidant activity against H2O2-induced oxidative stress in rat H9c2 cells assessed as cell viability at 5 uM pretreated with compounds for 18 hrs followed by H2O2 stimulation for 24 hrs by MTT assay. Conditions: time 42.0 hrs. Type of experiment: functional, cell-based.
In experiment [2] the test system is H9c2. In words: Cytoprotective activity against high glucose-induced oxidative stress in rat H9c2 cells assessed as inhibition of cell viability pretreated with compounds for 18 hrs followed by H2O2 stimulation for 24 hrs by MTT assay. The conditions noted are these: dose 0.625-5 µM, time 42.0 hrs. Type of experiment: functional, cell-based. In general terms: Tetrazolium dyes change colour on reduction, which living cells bring about.

The subject of experiment [3] is H9c2. In words: Cytoprotective activity against H2O2-induced oxidative stress in rat H9c2 cells assessed as inhibition of cell viability pretreated with compounds for 18 hrs followed by H2O2 stimulation for 24 hrs by MTT assay. The conditions noted are these: dose 0.625-5 µM, time 42.0 hrs. The experiment is classed as functional, cell-based.
In experiment [4] the test system is H9c2. In words: Cytoprotective activity against H2O2-induced rat H9c2 cells assessed as reversal of colony formation inhibition by colony formation assay. The conditions noted are these: dose 1.25-5 µM. Type of experiment: functional, cell-based.
Experiment [5] concerns H9c2. In words: […] of H2O2-induced oxidative stress in rat H9c2 cells assessed as decrease in MDA level pretreated with compounds for 18 hrs followed by H2O2 stimulation for 2 hrs by MDA assay. The experiment is classed as functional, cell-based. The conditions noted are these: dose 1.25-5 µM, time 20.0 hrs.
Experiment [6] has as its system H9c2. In words: Inhibition of H2O2-induced oxidative stress in rat H9c2 cells assessed as reduction intracellular ROS level pretreated with compounds for 18 hrs followed by H2O2 stimulation for 2 hrs by DCFH-DA based fluorescence microscopic analysis. Type of experiment: functional, cell-based. Conditions: dose 1.25-5 µM, time 20.0 hrs.
For experiment [7], the system named is H9c2. In words: Upregulation of HO-1 protein expression in rat H9c2 cells incubated for 18 hrs by Western blot analysis. The experiment is classed as functional, cell-based. Conditions: dose 0.625-2.5 µM. Background: A western blot detects proteins with antibodies after separation by electrophoresis.
Experiment [8] deals with H9c2. In words: Downregulation of Nrf2 expression in rat H9c2 cells transfected with Nrf2 siRNA at 0.625 uM pretreated with compound for 18 hrs followed by H2O2 stimulation for 24 hrs by Western blot analysis. The experiment is classed as functional, cell-based. The conditions noted are these: time 42.0 hrs.
The test system of experiment [9] is H9c2. In words: Activation of Nrf2 nuclear translocation in rat H9c2 cells assessed as increase in accumulation of Nrf2 in nucleus at 10 uM incubated for 6 hrs by DAPI staining based fluorescence microscopic analysis. Type of experiment: cell-based. The conditions noted are these: filed as activator.

As for `COc1ccccc1[C@H]1CN(C)C2(C(=O)Nc3ccc(Cl)cc32)[C@H]1C(=O)c1ccc(O)c(O)c1` (some centres undefined), the result in [1] was Active. As for `COc1ccc(OC)c([C@H]2CN(C)C3(C(=O)Nc4ccc(C)cc43)[C@H]2C(=O)c2ccc(O)c(O)c2)c1` (some centres undefined), the outcome in experiment [1] was Active. Consider `COc1ccc(OC)c([C@H]2CN(C)C3(C(=O)Nc4ccc(OC)cc43)[C@H]2C(=O)c2ccc(O)c(O)c2)c1` (some centres undefined), for which the result in experiment [1] was Active.

As for `COc1ccccc1[C@H]1CN(C)C2(C(=O)Nc3ccc(C)cc32)[C@H]1C(=O)c1ccc(O)c(O)c1` (some centres undefined), the result in [1] was Active. For the compound `COc1ccc2c(c1)C1(C(=O)N2)[C@@H](C(=O)c2ccc(O)c(O)c2)[C@@H](c2ccccc2OC)CN1C` (some centres undefined), the Activity result in experiment [2], in experiment [3], in experiment [4] and in experiment [5] was “Dose-dependent-effect” each time. Further, in experiment [1], the result was Active. For the same compound, the inhibition result in [6] was “Dose-dependent-effect”. For the compound `COc1ccc(OC)c([C@H]2CN(C)C3(C(=O)Nc4ccc(Br)cc43)[C@H]2C(=O)c2ccc(O)c(O)c2)c1` (some centres undefined), the result in [1] was Active. The same measure, in the same setting: with `COc1ccccc1[C@H]1CN(C)C2(C(=O)Nc3ccccc32)[C@H]1C(=O)c1ccc(O)c(O)c1` (some centres undefined) the entry was “Active”; with `COc1ccc(OC)c([C@H]2CN(C)C3(C(=O)Nc4ccc(F)cc43)[C@H]2C(=O)c2ccc(O)c(O)c2)c1` (some centres undefined), “Active”. As for `COc1ccccc1[C@H]1CN(C)C2(C(=O)Nc3ccc(Br)cc32)[C@H]1C(=O)c1ccc(O)c(O)c1` (some centres undefined), in experiment [1], the result was Active. Regarding `COc1ccccc1[C@H]1CN(C)[C@]2(C(=O)c3cccc4cccc2c34)[C@H]1C(=O)c1ccc(O)c(O)c1`, the outcome in experiment [1] was Active.

As for `COc1ccc(OC)c([C@H]2CN(C)C3(C(=O)Nc4ccc(Cl)cc43)[C@H]2C(=O)c2ccc(O)c(O)c2)c1` (some centres undefined), the outcome in experiment [1] was Active.

As for `COc1ccc(OC)c([C@H]2CN(C)C3(C(=O)Nc4ccccc43)[C@H]2C(=O)c2ccc(O)c(O)c2)c1` (some centres undefined), the Activity entry in [2], in [3], in experiment [7], in experiment [4] and in experiment [5] was “Dose-dependent-effect” in each case. Also, the result in experiment [1], in [8] and in experiment [9] was Active. Also, the inhibition entry in experiment [6] is “Dose-dependent-effect”. Take `COc1ccc(OC)c(/C=C/C(=O)c2ccc(O)c(O)c2)c1`: in experiment [1], the outcome was Active. The same measure, in the same setting: with `COc1ccccc1[C@H]1CN(C)C2(C(=O)Nc3ccc(F)cc32)[C@H]1C(=O)c1ccc(O)c(O)c1` (some centres undefined) the entry was “Active”; with `COc1ccc(OC)c([C@H]2CN(C)[C@]3(C(=O)c4cccc5cccc3c45)[C@H]2C(=O)c2ccc(O)c(O)c2)c1`, “Active”.

With `COc1ccccc1/C=C/C(=O)c1ccc(O)c(O)c1`, the result in experiment [1] was Active.
